Assay results as given in patent US6399643B1, “Spiroimidazolidine derivatives, their preparation, their use and pharmaceutical preparations formed therefrom” (Aventis Pharma Deutschland GmbH, priority 1999, dated 2002).
Where a name gives a salt, the structure may show the parent alone.

Biological target: T1, interaction between VCAM-1 and VLA-4 (Homo sapiens, UniProt P05556+P13612)
T1 construct: supplied in their natural form as surface molecules on human U937 cells; host or cells: human U937 cells (VLA-4, endogenous); the partner hVCAM-1(1-3)-IgG was made in house in transfected COS cells (ATCC CRL1651) and used as culture supernatant
Assay: U937/VCAM-1 cell adhesion test (adhesion of U937 cells to hVCAM-1(1-3)-IgG)
Assay type: cell-based
Settings: inhibition of adhesion of human U937 cells (ATCC CRL 1593) to hVCAM-1(1-3)-IgG
Source text: A) U937/VCAM-1 Cell Adhesion Test
The test method used for the activity of the compounds of the formula I on the interaction between VCAM-1 and VLA-4 is the assay described below, which is specific for this interaction. The cellular binding components, that is the VLA-4 integrins, are supplied in their natural form as surface molecules on human U937 cells (ATCC CRL 1593), which belong to the leukocytes group. The specific binding components used are genetically engineered recombinant soluble fusion proteins, consisting of the extracytoplasmic domain of human VCAM-1 and the constant region of a human immunoglobulin of the subclass IgG1.
Assay for the Measurement of the Adhesion of U937 Cells (ATCC CRL 1593) to hVCAM-1 (1-3)-IgG
1. Preparation of Human VCAM-1(1-3)-IgG and Human CD4-IgG
A genetic construct for the expression of the extracellular domain of human VCAM-1, combined with the genetic sequence of the heavy chain of human immunoglobulin IgG1 (hinge, CH2 and CH3 regions) (from Brian Seed, Massachusetts General Hospital, Boston, USA; cf. Damle and Aruffo, Proc. Natl. Acad. Sci. USA 1991, 88, 6403), was employed. The soluble fusion protein hVCAM-1(1-3)-IgG contained the three aminoterminal extracellular immunoglobulin-like domains of human VCAM-1 (Damle and Aruffo, Proc. Natl. Acad. Sci. USA 1991, 88, 6403). CD4-IgG (Zettlmeissl et al., DNA and Cell Biology 1990, 9, 347) served as a fusion protein for negative controls. The recombinant proteins were expressed as soluble proteins after DEAE/dextran-mediated DNA transfection in COS cells (ATCC CRL1651) according to standard procedures (Ausubel et al., Current protocols in molecular biology, John Wiley & Sons, Inc., 1994).
2. Assay for the Measurement of the Adhesion of U937 Cells to hVCAM-1(1-3)-IgG
2.1 96-well microtiter test plates (Nunc Maxisorb) were incubated at room temperature for 1 hour with 100 μl/well of a goat-anti-human IgG antibody solution (10 μg/ml in 50 mM tris, pH 9.5). After removal of the antibody solution, washing was carried out once with PBS.
2.2 150 μl/well of a blocking buffer (1% BSA in PBS) were incubated on the plates at room temperature for 0.5 hour. After removal of the blocking buffer, washing was carried out once with PBS.
2.3 100 μl per well of a cell culture supernatant of transfected COS cells were incubated on the plates at room temperature for 1.5 hours. The COS cells were transfected with a plasmid which codes for the three N-terminal immunoglobulin-like domains of VCAM-1, coupled to the Fc portion of human IgG1 (hVCAM-1 (1-3)-IgG). The content of hVCAM-1(1-3)-IgG was about 0.5-1 μg/ml. After removing the culture supernatant, washing was carried out once with PBS.
2.4 The plates were incubated at room temperature for 20 minutes with 100 μl/well of Fc receptor blocking buffer (1 mg/ml of γ-globulin, 100 mM NaCl, 100 μM MgCl2, 100 μM MnCl2, 100 μM CaCl2, 1 mg/ml of BSA in 50 mM HEPES, pH 7.5). After removal of the Fc receptor blocking buffer, washing was carried out once with PBS.
2.5 20 μl of binding buffer (100 μM NaCl, 100 μM MgCl2, 100 μM MnCl2, 100 μM CaCl2, 1 mg/ml of BSA in 50 mM HEPES, pH 7.5) were initially introduced, and the substances to be tested were added in 10 μl of binding buffer and incubated for 20 minutes. The controls used were antibodies against VCAM-1(BBT, No. BBA6) and against VLA-4(Immunotech, No. 0764).
2.6 U937 cells were incubated in Fc receptor blocking buffer for 20 minutes and then pipetted in at a concentration of 1×10^6/ml and in an amount of 100 μl per well ([…]).
2.7 The plates were slowly immersed at an angle of 45° in stop buffer (100 mM NaCl, 100 μM MgCl2, 100 μM MnCl2, 100 μM CaCl2 in 25 mM Tris, pH 7.5) and shaken off. The process was repeated.
2.8 50 μl/well of a dye solution ([…] of Hoechst Dye 33258, 4% formaldehyde, 0.5% Triton X-100 in PBS) were then incubated on the plates for 15 minutes. […]

T1 sequence (P13612 34-1032): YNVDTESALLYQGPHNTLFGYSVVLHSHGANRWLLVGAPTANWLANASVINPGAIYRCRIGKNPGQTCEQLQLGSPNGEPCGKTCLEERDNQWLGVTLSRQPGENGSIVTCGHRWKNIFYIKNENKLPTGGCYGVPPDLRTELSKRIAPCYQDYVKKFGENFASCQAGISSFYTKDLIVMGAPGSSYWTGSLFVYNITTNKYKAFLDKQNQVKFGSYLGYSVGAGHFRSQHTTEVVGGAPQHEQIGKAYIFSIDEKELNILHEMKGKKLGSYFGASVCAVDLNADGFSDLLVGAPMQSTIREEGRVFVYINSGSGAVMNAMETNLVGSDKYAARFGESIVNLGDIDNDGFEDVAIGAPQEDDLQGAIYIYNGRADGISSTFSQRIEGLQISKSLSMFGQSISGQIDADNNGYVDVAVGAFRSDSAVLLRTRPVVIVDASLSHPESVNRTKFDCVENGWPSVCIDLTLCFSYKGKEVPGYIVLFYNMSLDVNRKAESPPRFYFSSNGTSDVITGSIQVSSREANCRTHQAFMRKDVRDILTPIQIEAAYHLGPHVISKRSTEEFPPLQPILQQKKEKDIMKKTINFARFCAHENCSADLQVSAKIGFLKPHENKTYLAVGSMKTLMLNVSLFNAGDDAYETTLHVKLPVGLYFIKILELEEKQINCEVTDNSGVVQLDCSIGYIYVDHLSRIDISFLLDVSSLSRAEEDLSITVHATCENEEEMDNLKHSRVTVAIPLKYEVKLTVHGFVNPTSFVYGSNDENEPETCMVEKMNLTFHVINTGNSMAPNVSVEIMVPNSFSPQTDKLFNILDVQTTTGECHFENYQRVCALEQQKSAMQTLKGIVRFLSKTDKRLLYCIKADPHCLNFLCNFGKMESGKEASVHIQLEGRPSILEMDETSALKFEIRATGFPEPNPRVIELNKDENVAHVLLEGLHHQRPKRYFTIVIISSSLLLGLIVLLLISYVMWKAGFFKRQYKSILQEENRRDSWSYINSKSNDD
T1 sequence (P05556 21-798): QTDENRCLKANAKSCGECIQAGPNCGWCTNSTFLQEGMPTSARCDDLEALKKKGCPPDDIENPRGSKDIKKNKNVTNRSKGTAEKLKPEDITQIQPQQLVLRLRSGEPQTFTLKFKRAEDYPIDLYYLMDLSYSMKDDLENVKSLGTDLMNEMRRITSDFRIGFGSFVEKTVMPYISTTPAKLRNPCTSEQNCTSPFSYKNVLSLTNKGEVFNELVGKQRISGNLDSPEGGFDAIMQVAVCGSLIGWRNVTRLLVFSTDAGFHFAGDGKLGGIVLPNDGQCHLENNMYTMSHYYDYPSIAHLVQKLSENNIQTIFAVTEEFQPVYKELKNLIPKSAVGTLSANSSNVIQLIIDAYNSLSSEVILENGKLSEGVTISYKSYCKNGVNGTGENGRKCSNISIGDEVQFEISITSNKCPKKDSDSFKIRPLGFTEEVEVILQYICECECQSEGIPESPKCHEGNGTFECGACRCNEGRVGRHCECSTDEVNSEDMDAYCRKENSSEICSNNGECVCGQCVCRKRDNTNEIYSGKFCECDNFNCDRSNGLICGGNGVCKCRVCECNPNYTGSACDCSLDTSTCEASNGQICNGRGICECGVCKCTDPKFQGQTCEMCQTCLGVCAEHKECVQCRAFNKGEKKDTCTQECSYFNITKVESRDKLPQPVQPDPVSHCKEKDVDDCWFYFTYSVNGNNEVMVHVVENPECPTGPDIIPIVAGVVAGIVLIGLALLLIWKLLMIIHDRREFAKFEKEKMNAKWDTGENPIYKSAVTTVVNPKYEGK

Row | SMILES | IC50
1 | COc1ccc([C@H](CC(=O)O)NC(=O)[C@H](CC(C)C)N2C(=O)N(Cc3ccc(NC(=O)Nc4ccccc4C)cc3)C3(CCCCC3)C2=O)cc1OC [Example 32, (S)-3-((S)-2-(4,4-Pentamethylene-3-(4-(3-(2-methylphenyl)ureido)benzyl)-2,5-dioxoimidazolidin-1-yl)-2-(2-methylpropyl)acetylamino)-3-(3,4-dimethoxyphenyl)propionic acid tromethamine salt] | 0.6 nM
2 | COc1ccc([C@H](CC(=O)O)NC(=O)[C@H](CC(C)C)N2C(=O)N(Cc3ccc(NC(=O)Nc4ccccc4C)cc3)C3(CCCCC3)C2=O)cc1OC [Example 31, (S)-3-((S)-2-(4,4-Pentamethylene-3-(4-(3-(2-methylphenyl)ureido)benzyl)-2,5-dioxoimidazolidin-1-yl)-2-(2-methylpropyl)acetylamino)-3-(3,4-dimethoxyphenyl)propionic acid] | 0.8 nM
3 | COc1cccc([C@H](CC(=O)O)NC(=O)[C@H](CC(C)C)N2C(=O)N(Cc3ccc(NC(=O)Nc4ccccc4)cc3)C3(CCCCC3)C2=O)c1 [Example 22, (S)-3-((S)-2-(4,4-Pentamethylene-3-(4-(3-phenylureido)benzyl)-2,5-dioxoimidazolidin-1-yl)-2-(2-methylpropyl)acetylamino)-3-(3-methoxyphenyl)propionic acid] | 6.7 nM
4 | COc1ccc([C@H](CC(=O)O)NC(=O)[C@H](CC(C)C)N2C(=O)N(Cc3ccc(NC(=O)Nc4ccccc4)cc3)C3(CCCCC3)C2=O)cc1OC [Example 21, (S)-3-((S)-2-(4,4-Pentamethylene-3-(4-(3-phenylureido)benzyl)-2,5-dioxoimidazolidin-1-yl)-2-(2-methylpropyl)acetylamino)-3-(3,4-dimethoxyphenyl)propionic acid tromethamine salt] | 3 nM
5 | Cc1ccccc1NC(=O)Nc1ccc(CN2C(=O)N([C@@H](CC(C)C)C(=O)N[C@@H](CC(=O)O)c3ccccc3)C(=O)C23CCCCC3)cc1 [Example 8, (S)-3-((S)-2-(4,4-Pentamethylene-3-(4-(3-(2-methylphenyl)ureido)benzyl)-2,5-dioxoimidazolidin-1-yl)-2-(2-methylpropyl)acetylamino)-3-phenylpropionic acid] | 3.2 nM
6 | COc1cc(CN2C(=O)N([C@@H](CC(C)C)C(=O)N[C@@H](CC(=O)O)c3ccc(OC)c(OC)c3)C(=O)C23CCCCC3)ccc1NC(=O)Nc1ccccc1C [Example 38, (S)-3-((S)-2-(4,4-Pentamethylene-3-(4-(3-(2-methylphenyl)ureido)-3-methoxybenzyl)-2,5-dioxoimidazolidin-1-yl)-2-(2-methylpropyl)acetylamino)-3-(3,4-dimethoxyphenyl)propionic acid tromethamine salt] | 1.6 nM
7 | COc1ccc([C@H](CC(=O)O)NC(=O)[C@H](CC(C)C)N2C(=O)N(Cc3ccc(NC(=O)Nc4ccccc4)cc3)C3(CCCCC3)C2=O)cc1 [Example 16, (S)-3-((S)-2-(4,4-Pentamethylene-3-(4-(3-phenylureido)benzyl)-2,5-dioxoimidazolidin-1-yl)-2-(2-methylpropyl)acetylamino)-3-(4-methoxyphenyl)propionic acid] | 4 nM
8 | COc1ccc([C@H](CC(=O)O)NC(=O)[C@H](CC(C)C)N2C(=O)N(Cc3ccc(NC(=O)Nc4ccccc4C)cc3)C3(CCCCC3)C2=O)c(OC)c1 [Example 29, (S)-3-((S)-2-(4,4-Pentamethylene-3-(4-(3-(2-methylphenyl)ureido)benzyl-2,5-dioxoimidazolidin-1-yl)-2-(2-methylpropyl)acetylamino)-3-(2,4-dimethoxyphenyl)propionic acid tromethamine salt] | 1.9 nM
9 | Cc1ccccc1NC(=O)Nc1ccc(CN2C(=O)N([C@@H](CC(C)C)C(=O)N[C@@H](CC(=O)O)c3ccc4c(c3)OCCO4)C(=O)C23CCCCC3)cc1 [Example 35, (S)-3-((S)-2-(4,4-Pentamethylene-3-(4-(3-(2-methylphenyl)ureido)benzyl)-2,5-dioxoimidazolidin-1-yl)-2-(2-methylpropyl)acetylamino)-3-(3,4-ethylenedioxyphenyl)propionic acid sodium salt] | 3.4 nM
10 | CC(C)C[C@@H](C(=O)N[C@@H](CC(=O)O)c1ccccc1)N1C(=O)N(Cc2ccc(NC(=O)Nc3ccccc3)cc2)C2(CCCCC2)C1=O [Example 1, (S)-3-((S)-2-(4,4-Pentamethylene-3-(4-(3-phenylureido)benzyl)-2,5-dioxoimidazolidin-1-yl)-2-(2-methylpropyl)acetylamino)-3-phenylpropionic acid] | 3.2 nM
11 | COc1cc(CN2C(=O)N([C@@H](CC(C)C)C(=O)N[C@@H](CC(=O)O)c3ccc(OC)c(OC)c3)C(=O)C23CCCCC3)ccc1NC(=O)Nc1ccccc1C [Example 37, (S)-3-((S)-2-(4,4-Pentamethylene-3-(4-(3-(2-methylphenyl)ureido)-3-methoxybenzyl)-2,5-dioxoimidazolidin-1-yl)-2-(2-methylpropyl)acetylamino)-3-(3,4-dimethoxyphenyl)propionic acid] | 1.3 nM
12 | COc1ccc([C@H](CC(=O)O)NC(=O)[C@H](CC(C)C)N2C(=O)N(Cc3ccc(NC(=O)Nc4ccccc4C)cc3)C3(CCCCC3)C2=O)cc1 [Example 27, (S)-3-((S)-2-(4,4-Pentamethylene-3-(4-(3-(2-methylphenyl)ureido)benzyl)-2,5-dioxoimidazolidin-1-yl)-2-(2-methylpropyl)acetylamino)-3-(4-methoxyphenyl)propionic acid tromethamine salt] | 3.4 nM
13 | COc1cccc([C@H](CC(=O)O)NC(=O)[C@H](CC(C)C)N2C(=O)N(Cc3ccc(NC(=O)Nc4ccccc4C)cc3)C3(CCCCC3)C2=O)c1 [Example 25, (S)-3-((S)-2-(4,4-Pentamethylene-3-(4-(3-(2-methylphenyl)ureido)benzyl)-2,5-dioxoimidazolidin-1-yl)-2-(2-methylpropyl)acetylamino)-3-(3-methoxyphenyl)propionic acid] | 1.1 nM
14 | Cc1ccccc1NC(=O)Nc1ccc(CN2C(=O)N([C@@H](CC(C)C)C(=O)N[C@@H](CC(=O)O)c3ccc4c(c3)OCCO4)C(=O)C23CCCCC3)cc1 [Example 34, (S)-3-((S)-2-(4,4-Pentamethylene-3-(4-(3-(2-methylphenyl)ureido)benzyl)-2,5-dioxoimidazolidin-1-yl)-2-(2-methylpropyl)acetylamino)-3-(3,4-ethylenedioxyphenyl)propionic acid] | 1.8 nM
15 | COc1ccc([C@H](CC(=O)O)NC(=O)[C@H](CC(C)C)N2C(=O)N(Cc3ccc(NC(=O)Nc4ccccc4C)cc3)C3(CCCCC3)C2=O)cc1 [Example 26, (S)-3-((S)-2-(4,4-Pentamethylene-3-(4-(3-(2-methylphenyl)ureido)benzyl)-2,5-dioxoimidazolidin-1-yl)-2-(2-methylpropyl)acetylamino)-3-(4-methoxyphenyl)propionic acid] | 2.6 nM
